The source of these data is patent publication US10945972B2, “Particulate materials” (Nektar Therapeutics, priority 2002, dated 2021).

Counter-ions that a name gives are not always drawn.

Holding throughout (type): physicochemical
Series [1] in a line: AFM adhesion force of particles (Example 10). Particulars: for adhesion force per unit area: following correction for surface area; for initial adhesion force for individual particles: in 2H 3H perfluoropentane. Here is the method: The example assessed the force of adhesion of particles of salbutamol sulfate produced using a SEDS™ processes compared to the same compound in micronized form. Conventional AFM analysis was used. Particles of the samples were mounted onto AFM probes and the adhesion force per unit area to a freshly cleaved highly oriented pyrolytic graphite substrate (HOP G, Agar Scientific, Essex, UK) in a liquid (2H 3H perfluoropentane) environment was determined. The contact area involved in the interaction was assessed and related to the force measurements.

Series [2] can be described thus: Particle size by AeroSizer time-of-flight (Example 1). Particulars: aerodynamic-equivalent volume mean diameter. Here is the method: (§1) PSD measurements were performed using firstly, AEROSIZER® time-of-flight instrument equipped with AERO-[…]® (TSI Inc., Minneapolis. USA) and secondly, laser diffraction sensor Helos with dry-powder air-dispersion system Rodos (Sympatec GmbH. Germany). The volume mean particle diameter, VMD, was obtained for both instruments using software options. In the general case of non-spherical particles, these instruments cannot provide the exact value of VMD, however, the time-of-flight technique gives an aerodynamic-equivalent particle diameter, whereas the laser diffraction method provides the geometric projection-equivalent diameter. These diameters afford the complementary information on PSD and therefore can be used for comparative size analysis.

Series [3] in a line: Particle size by Helos/Rodos laser diffraction (Example 1). As to conditions: geometric projection-equivalent volume mean diameter; hydrobromide. The protocol:
as §1

A short description of series [4]: Inverse gas chromatography surface energy (Example 1). Particulars: 303K; for γs^D (mJ/m^2) / ΔGA (kJ/mol) Chloroform / ΔGA (kJ/mol) Toluene: hydrobromide; for ΔGA (kJ/mol) Chloroform: probe chloroform; for ΔGA (kJ/mol) Toluene: probe toluene. From the text:
For TBS and FHBr powders, IGC was done using a Hewlett Packard Series 6890 instrument which was specifically modified for IGC measurements by Surface Measurement Systems Ltd (Manchester, UK). The IGC method is described in detail by Tong et al. 2001. (Tong H. H. Y., B. Y. Shekunov, P. York, A. H. L. Chow, 2001. Pharm. Res. 18, 852.) Triplicate measurements in separate packed columns were made. […] The γS^D and ΔGA values were obtained at 303K.

Series [5] is described as follows: AEROSIZER time-of-flight of TBS (Example 8). Here is the method: The TBS samples were also analysed using an AEROSIZER™ (Amherst Process Instruments, Amherst, Mass., USA), provided with pulse jet disperser, the AERODISPERSER™, to introduce the powders to the instrument. The measurement range of the AEROSIZER™ is nominally from 0.2 to 200 μm of aerodynamic diameter with the standard 750 μm diameter tapered nozzle. The micronized and SEDS™ TBS samples were analyzed for 300 seconds in triplicate using normal deagglomeration conditions, feed rate (5000 particles per second) and medium shear force (0.5 psi).

Series [6] can be described thus: Laser diffraction HELOS/RODOS of TBS (Example 8). Particulars: 2 bar. Here is the method: A small amount of TBS powder was analysed using a laser diffraction RODOS/VIBRI dispersing system (HELOS/RODOS, Sympatec GmbH, Clausthal-Zellerfeld, Germany). The instrument consisted of a laser sensor HELOS and a RODOS dry-powder air-dispersion system (Sympatec GmbH, Clausthal-Zellerfeld, Germany). Different measurement ranges of the laser sensor were provided by interchangeable objectives R1 (0.1-35 μm) and R2 (0.25-87.5 μm). The rate of powder dispersion was controlled by adjusting the pressure of the compressed air flow. A pressure of 2 bar was sufficient to achieve deagglomeration of primary particles without attrition.

The nature of series [7]: Differential scanning calorimetry (Example 8). Particulars: DSC, 10° C. min^−1. Here is the method:
Prior to sample analysis, a baseline was obtained which was used as a background. […] Temperature and enthalpy were calibrated with the standard materials indium (melting point=156.6° C.) and zinc (melting point=419.5° C.). Samples (1-10) were accurately weighed into pierced, crimped aluminium pans and heated at 10° C. min^−1 over a heating range of 25-290° C. under a nitrogen purge. A chiller unit was used in conjunction with the calorimeter to attain the lower temperatures.
In general terms: DSC measures the heat that a sample takes up or gives off during a temperature scan.

For the molecule “salbutamol sulfate [micronized material, reference compound]”, in series [1], the “adhesion force per unit area” value is given as 100.91 nN/μm^2 and the “initial adhesion force for individual particles” value was found to be 15.77 nN.
In the same order, the values of “salbutamol sulfate [SEDS™ produced material]” are 13.52 nN/μm^2 and 4.21 nN.
In the case of `CC(Cc1ccc(O)cc1)NCC(O)c1cc(O)cc(O)c1` (centres unmarked) [FHBr SEDS, fenoterol hydrobromide], in series [2], the “VMD (μm) (Time of flight)” value is given as 1.7 μm. Besides, the “VMD (μm) (laser diffraction)” value in series [3] was 3.55 μm. In series [4], the “γs^D (mJ/m^2)” value was 49.87 mJ/m^2, the “ΔGA (kJ/mol) Chloroform” value was 0.63 kJ/mol and the “ΔGA (kJ/mol) Toluene” value turned out to be 3.86 kJ/mol. In addition, the “ΔGA (kJ/mol) Acetone” value in series [4] (probe acetone) came out at 13.15 kJ/mol. The “ΔGA (kJ/mol) Dioxane” value in series [4] (probe dioxane) came to 15.32 kJ/mol. Further, in series [4] (probe ethyl acetate), the “ΔGA (kJ/mol) Ethyl acetate” value came out at 17.48 kJ/mol.
As to `CC(Cc1ccc(O)cc1)NCC(O)c1cc(O)cc(O)c1` (centres unmarked) [FHBr Micronised, fenoterol hydrobromide, reference compound], the “VMD (μm) (Time of flight)” value in series [2] is 1.7 μm. In addition, the “VMD (μm) (laser diffraction)” value in series [3] is 2.34 μm. Besides, in series [4], the “γs^D (mJ/m^2)” value came to 48.53 mJ/m^2, the “ΔGA (kJ/mol) Chloroform” value stood at 0.69 kJ/mol and the “ΔGA (kJ/mol) Toluene” value stood at 4.77 kJ/mol.
Regarding `CC(C)(C)NCC(O)c1cc(O)cc(O)c1` (centres unmarked) [TBS 5, terbutaline sulfate], the “Aerosizer D4, 3 (μm)” value in series [5] was 11.44 μm. Besides, the “Sympatec D4, 3 (μm)” value in series [6] worked out at 4.84 μm. In addition, the “Enthalpy of Fusion” value in series [7] came to 57.69 J/g.
Consider `CC(C)(C)NCC(O)c1cc(O)cc(O)c1` (centres unmarked) [TBS 4, terbutaline sulfate], for which the “Aerosizer D4, 3 (μm)” value in series [5] amounted to 15.53 μm. In series [6], the “Sympatec D4, 3 (μm)” value is 4.75 μm. In addition, the “Enthalpy of Fusion” value in series [7] came out at 40.98 J/g.
In the same order, the values of `CC(C)(C)NCC(O)c1cc(O)cc(O)c1` (centres unmarked) [TBS 3, terbutaline sulfate] are 6.69 μm, 1.99 μm and 31.35 J/g.
